Test results as given in ChEMBL document CHEMBL4765457, “Targeting dual tolerant regions of binding pocket: Discovery of novel morpholine-substituted diarylpyrimidines as potent HIV-1 NNRTIs with significantly improved water solubility” (Eur J Med Chem, 2020).

Columns and labels:
[1] = Cytotoxicity against human MT4 cells assessed as reduction in cell viability incubated for 5 days by MTT assay; type: cell-based; settings: time 5 day
[2] = test system: Human immunodeficiency virus 1; assay: Antiviral activity against HIV1 RES056 infected in human MT4 cells assessed as inhibition of virus-induced cytopathic effect incubated for 5 days by MTT assay; type: functional, organism-based; settings: Human immunodeficiency virus 1, RES056, MT4, 120 h
[3] = Selectivity index, ratio of CC50 for human MT4 cells to EC50 for antiviral activity against HIV1 3B infected in human MT4 cells; type: toxicity, cell-based; settings: read-out: Ratio CC50/EC50
[4] = Selectivity index, ratio of CC50 for human MT4 cells to EC50 for antiviral activity against HIV1 RES056 infected in human MT4 cells; type: toxicity, cell-based; settings: read-out: Ratio CC50/EC50
[5] = test system: Human immunodeficiency virus 1; assay: Antiviral activity against HIV1 3B infected in human MT4 cells assessed as virus-induced cytopathic effect incubated for 5 days by MTT assay; type: functional, organism-based; settings: Human immunodeficiency virus 1, 3B, MT4, 120 h
[6] = test system: Human immunodeficiency virus 1; assay: Antiviral activity against HIV1 harboring RT F227L/V106Amutant infected in human MT4 cells assessed as inhibition of virus-induced cytopathic effect incubated for 5 days by MTT assay; type: functional, organism-based; settings: Human immunodeficiency virus 1, MT4, 120 h
[7] = Resistance index, ratio of EC50 for antiviral activity against HIV1 expressing RT Y181C mutant infected in human MT4 cells to EC50 for antiviral activity against HIV1 3B infected in human MT4 cells; type: functional
[8] = test system: Human immunodeficiency virus 1; assay: Antiviral activity against HIV1 harboring RT Y181C mutant infected in human MT4 cells assessed as inhibition of virus-induced cytopathic effect incubated for 5 days by MTT assay; type: functional, organism-based; settings: Human immunodeficiency virus 1, MT4, 120 h
[9] = test system: Human immunodeficiency virus 1; assay: Antiviral activity against HIV1 harboring RT K103N mutant infected in human MT4 cells assessed as inhibition of virus-induced cytopathic effect incubated for 5 days by MTT assay; type: functional, organism-based; settings: Human immunodeficiency virus 1, MT4, 120 h
[10] = Resistance index, ratio of EC50 for antiviral activity against HIV1 expressing RT K103N mutant infected in human MT4 cells to EC50 for antiviral activity against HIV1 3B infected in human MT4 cells; type: functional
[11] = Resistance index, ratio of EC50 for antiviral activity against HIV1 expressing RT F227L/V106A mutant infected in human MT4 cells to EC50 for antiviral activity against HIV1 3B infected in human MT4 cells; type: functional
[12] = Resistance index, ratio of EC50 for antiviral activity against HIV1 expressing RT E138K mutant infected in human MT4 cells to EC50 for antiviral activity against HIV1 3B infected in human MT4 cells; type: functional
[13] = Resistance index, ratio of EC50 for antiviral activity against HIV1 expressing RT Y188L mutant infected in human MT4 cells to EC50 for antiviral activity against HIV1 3B infected in human MT4 cells; type: functional
[14] = Resistance index, ratio of EC50 for antiviral activity against HIV1 expressing RT L100I mutant infected in human MT4 cells to EC50 for antiviral activity against HIV1 3B infected in human MT4 cells; type: functional
[15] = test system: Human immunodeficiency virus 1; assay: Antiviral activity against HIV1 harboring RT Y188L mutant infected in human MT4 cells assessed as inhibition of virus-induced cytopathic effect incubated for 5 days by MTT assay; type: functional, organism-based; settings: Human immunodeficiency virus 1, MT4, 120 h
[16] = test system: Human immunodeficiency virus 1; assay: Antiviral activity against HIV1 harboring RT L100I mutant infected in human MT4 cells assessed as inhibition of virus-induced cytopathic effect incubated for 5 days by MTT assay; type: functional, organism-based; settings: Human immunodeficiency virus 1, MT4, 120 h
[17] = test system: Human immunodeficiency virus 1; assay: Antiviral activity against HIV1 harboring RT E138K mutant infected in human MT4 cells assessed as inhibition of virus-induced cytopathic effect incubated for 5 days by MTT assay; type: functional, organism-based; settings: Human immunodeficiency virus 1, MT4, 120 h

| SMILES | CC50 at 120 h [1] [µM] | EC50 [2] [µM] | selectivity ratio [3] | selectivity ratio [4] | EC50 [5] [µM] | EC50 [6] [µM] | Ratio EC50 [7] | EC50 [8] [µM] | EC50 [9] [µM] | Ratio EC50 [10] | Ratio EC50 [11] | Ratio EC50 [12] | Ratio EC50 [13] | Ratio EC50 [14] | EC50 [15] [µM] | EC50 [16] [µM] | EC50 [17] [µM] |
| --- | --- | --- | --- | --- | --- | --- | --- | --- | --- | --- | --- | --- | --- | --- | --- | --- | --- |
| Cc1cc(C#N)cc(C)c1Oc1nc(NC2CCN(CCN3CCOCC3)CC2)nc2c1COC2 | 140 | > 140 | 383 | < 1 | 0.366 | – | – | – | – | – | – | – | – | – | – | – | – |
| Cc1cc(C#N)cc(C)c1Oc1nc(NC2CCN(CCN3CCOCC3)CC2)nc2ccoc12 | 138 | > 138 | 125 | < 1 | 1.1 | – | – | – | – | – | – | – | – | – | – | – | – |
| Cc1cc(C#N)cc(C)c1Oc1nc(NC2CCN(CCN3CCOCC3)CC2)nc2ccccc12 | 26 | > 26 | 52 | < 1 | 0.502 | – | – | – | – | – | – | – | – | – | – | – | – |
| Cc1cc(C#N)cc(C)c1Oc1nc(NC2CCN(CC(=O)N3CCOCC3)CC2)nc2c1COC2 | 184 | > 184 | 1240 | < 1 | 0.149 | – | – | – | – | – | – | – | – | – | – | – | – |
| Cc1cc(C#N)cc(C)c1Oc1ccnc(NC2CCN(CCN3CCOCC3)CC2)n1 | 246 | > 246 | 219 | < 1 | 1.12 | – | – | – | – | – | – | – | – | – | – | – | – |
| Cc1cc(C#N)cc(C)c1Oc1nc(NC2CCN(CC(=O)N3CCOCC3)CC2)nc2ccoc12 | 125 | > 125 | 383 | < 1 | 0.327 | – | – | – | – | – | – | – | – | – | – | – | – |
| Cc1cc(C#N)cc(C)c1Oc1nc(NC2CCN(CC(=O)N3CCOCC3)CC2)nc2cc(F)ccc12 | 41.1 | > 16.4 | 71 | < 2.51 | 0.577 | – | – | – | – | – | – | – | – | – | – | – | – |
| COc1cc2nc(NC3CCN(CCN4CCOCC4)CC3)nc(Oc3c(C)cc(C#N)cc3C)c2cc1OC | 121 | > 121 | 68 | < 1 | 1.79 | – | – | – | – | – | – | – | – | – | – | – | – |
| Cc1cc(C#N)cc(C)c1Oc1nc(NC2CCN(CC(=O)N3CCOCC3)CC2)nc2c1CSC2 | 64.6 | > 64.6 | 420 | < 1 | 0.154 | 41.2 | 86.9 | 13.4 | 3.73 | 24.2 | 267.3 | 4.1 | 48.4 | 158.7 | 7.45 | 24.4 | 0.627 |
| Cc1cc(C#N)cc(C)c1Oc1nc(NC2CCN(CCN3CCOCC3)CC2)nc2c1CCC2 | 49.1 | > 49.1 | 261 | < 1 | 0.188 | – | – | – | – | – | – | – | – | – | – | – | – |
| Cc1cn([C@H]2C[C@H](N=[N+]=[N-])[C@@H](CO)O2)c(=O)[nH]c1=O [ZIDOVUDINE] | > 7.48 | 0.024 | > 397 | > 311 | 0.019 | 0.009 | 0.9 | 0.016 | – | 1 | 0.5 | 1.4 | 0.5 | 0.3 | 0.009 | 0.006 | 0.027 |
| Cc1cc(C#N)cc(C)c1Oc1nc(NC2CCN(Cc3ccc(S(N)(=O)=O)cc3)CC2)nc2ccsc12 | – | – | – | – | – | 0.0042 | 2.3 | – | – | 2 | 3 | 2 | 2.1 | 2.4 | – | – | – |
| Cc1cc(C#N)cc(C)c1Oc1nc(NC2CCN(CC(=O)N3CCOCC3)CC2)nc2ccsc12 | 41.9 | > 41.9 | 416 | < 1 | 0.101 | ≥ 17.9 | 52.4 | 5.27 | 1.38 | 13.7 | >=178.1 | 1.7 | 48.8 | 51.4 | 4.92 | 5.17 | 0.171 |
| Nc1ccn([C@@H]2CS[C@H](CO)O2)c(=O)n1 [LAMIVUDINE] | > 87.2 | 8.35 | > 17 | > 10 | 5.02 | 2.77 | 1 | 4.79 | 3.75 | 0.7 | 0.6 | 1.3 | 0.7 | 0.3 | 3.36 | 1.62 | 6.64 |
| Cc1cc(C#N)cc(C)c1Oc1nc(NC2CCN(CCN3CCOCC3)CC2)nc2c1SCC2 | 43 | > 43 | 376 | < 1 | 0.114 | – | – | – | – | – | – | – | – | – | – | – | – |
| Cc1cc(C#N)cc(C)c1Oc1nc(NC2CCN(CC(=O)N3CCOCC3)CC2)nc2scnc12 | 129 | > 129 | 919 | < 1 | 0.14 | 35.9 | 21.8 | 3.06 | 3.74 | 26.7 | 256.1 | 5 | 86 | 107.7 | 12.1 | 15.1 | 0.703 |
| Cc1cc(C#N)cc(C)c1Oc1nc(NC2CCN(CC(=O)N3CCOCC3)CC2)nc2ccccc12 | 42.6 | > 42.6 | 71 | < 1 | 0.597 | – | – | – | – | – | – | – | – | – | – | – | – |
| Cc1cc(C#N)cc(C)c1Oc1nc(NC2CCN(CCN3CCOCC3)CC2)nc2c1CSC2 | 28.5 | > 28.5 | 164 | < 1 | 0.173 | 11.8 | 76.2 | 13.2 | 1.96 | 11.3 | 68.4 | 6.8 | 79.7 | 95.6 | 13.8 | 16.6 | 1.18 |
| O=C1Nc2ccc(Cl)cc2[C@@](C#CC2CC2)(C(F)(F)F)O1 [EFAVIRENZ] | > 6.34 | – | – | – | – | – | – | 0.006 | 0.094 | – | – | – | – | – | – | 0.04 | – |
| Cc1cc(C#N)cc(C)c1Oc1nc(NC2CCN(CCN3CCOCC3)CC2)nc2scnc12 | 88.6 | > 88.6 | 305 | < 1 | 0.291 | – | – | – | – | – | – | – | – | – | – | – | – |
| Cc1cc(C#N)cc(C)c1Oc1ccnc(NC2CCN(CC(=O)N3CCOCC3)CC2)n1 | 143 | > 143 | 1020 | < 1 | 0.141 | – | – | – | – | – | – | – | – | – | – | – | – |
| Cc1ccnc2c1NC(=O)c1cccnc1N2C1CC1 [NEVIRAPINE] | > 15 | > 15 | > 92 | – | – | ≥ 5.41 | 40.7 | 6.69 | 5.1 | 31.1 | >=32.9 | 1.2 | >=46.9 | 6.3 | ≥ 7.7 | 1.03 | 0.191 |
